Structures can show the parent of a compound that is named as a salt.
Tests used:
Format in all cases: in vivo, C57BL/6J mice
[1] = test system: T-SOD; test: Serum T-SOD by colorimetry; conditions: metformin 200 mg/kg/d, after 30 days
Experimental: (§1) The levels of T-SOD, MDA and GSH-px in serum are measured by colorimetry, and the level of testosterone (T) in serum is measured by enzyme linked immunosorbent assay (ELISA), all according to the manufacturer's instructions. Data is analyzed using GraphPad Prism 8.4 statistical software. Counting data of experimental results is expressed as rate/percentage (%), and measurement data is expressed as x±s. The one-way ANOVA is used to compare the groups, and the difference is statistically significant with P<0.05.

[2] = test system: PI3K; test: Western blot of PI3K expression in testis; conditions: Western blot gray values, metformin 200 mg/kg/d, after 30 days
Experimental: (§2) Protein samples are taken and added into concentrated gel of an electrophoresis tank for running the gel, transferring the protein from the gel to the membrane, bovine albumin (BSA) blocking and membrane washing, then primary antibodies (including PI3K (rabbit antibody), AKT (rabbit antibody), p-AKT (rabbit antibody), β-actin (rabbit antibody), Bcl-2 (rabbit antibody) and β-actin (mouse antibody) diluted at the concentration 1:1000) are added for incubation and stay overnight in the refrigerator at 4° C.; the next day, the membrane is washed, after the secondary antibodies (including: a mouse secondary antibody (1:5000) and a rabbit secondary antibody (1:2000)) are added for incubation and blocked, the membrane is washed, followed by development, and then gray values are analyzed. Data is analyzed using GraphPad Prism 8.4 statistical software. Counting data of experimental results is expressed as rate/percentage (%), and measurement data is expressed as x±s. The one-way ANOVA is used to compare the groups, and the difference is statistically significant with P<0.05.

[3] = Body weight of mice with testicular dysfunction caused by obese type 2 diabetes mellitus; set-up: AUC of weight before treatment: unit not given beside the values
Experimental: With six mice in each group, the mice are randomly assigned after one week of adaptive rearing to a control group (Con), a model group (Model), a high-dose compound group (YPBS-H), a low-dose compound group (YPBS-L) and a metformin group (Metformin, Met). The six mice in the control group are given regular feed, the remaining mice are fed with 60% high-fat feed, the weight of each of mice is recorded every 7 days during the feeding.
The mice in each group have been successfully established after feeding for 16 weeks in step 2.1, and the mice in each group are given medicine treatment as follows.
The high-dose compound group (YPBS-H): the traditional Chinese medicine compound obtained in the embodiment 1 is given at a dose of 4 grams per kilogram per day (g/kg/d) per animal.
The low-dose compound group (YPBS-L): the traditional Chinese medicine compound obtained in the embodiment 1 is given at a dose of 2 g/kg/d per animal.
The metformin group (Met): the metformin is given at a dose of 200 mg/kg/d per animal.
During the administration, the mice are fed with the normal feed and drink water normally, and the weight changes of mice are observed. Data is analyzed using GraphPad Prism 8.4 statistical software. Counting data of experimental results is expressed as rate/percentage (%), and measurement data is expressed as x (i.e., mean)±s. The one-way analysis of variance (ANOVA) is used to compare the groups, and the difference is statistically significant with P<0.05.

[4] = test system: GSH-px; test: Serum GSH-Px by colorimetry; conditions: metformin 200 mg/kg/d, after 30 days
Experimental: as §1

[5] = test system: obese type 2 diabetic mice; test: Cage experiment (fertility)
Experimental: Female mice of childbearing age are caged with male mice of each group in the ratio of 2:1 for one week, and their fertility is tested by the birth situation.

[6] = test system: mice with testicular dysfunction caused by obese type 2 diabetes mellitus; test: Fasting blood glucose (FPG); conditions: metformin 200 mg/kg/d, day 30
Experimental: (§3) OGTT test: the mice are weighed after 15 h fast, fasting blood glucose (FPG) of the mice is measured separately, and the amount of glucose is determined based on the mice's weight. Blood glucose fluctuations are then monitored at 15 min, 30 min, 60 min and 120 min after gavage. Data is analyzed using GraphPad Prism 8.4 statistical software. Counting data of experimental results is expressed as rate/percentage (%), and measurement data is expressed as x±s. The one-way ANOVA is used to compare the groups, and the difference is statistically significant with P<0.05.
(§4) ITT test: the mice are weighed after 5 h fast, the insulin dosage is calculated, and FPG of the mice is measured. Blood glucose fluctuations are then monitored at 15 min, 30 min, 60 min and 120 min after insulin is given. Data is analyzed using GraphPad Prism 8.4 statistical software. Counting data of experimental results is expressed as rate/percentage (%), and measurement data is expressed as x±s. The one-way ANOVA is used to compare the groups, and the difference is statistically significant with P<0.05.

[7] = test system: MDA; test: Serum MDA by colorimetry; conditions: metformin 200 mg/kg/d, after 30 days
Experimental: as §1

[8] = test system: obese type 2 diabetic mice; test: Testis, epididymis and seminal vesicle gland coefficients; conditions: metformin 200 mg/kg/d, after 30 days
[9] = test system: sperm and egg cells; test: In vitro fertilization with sperm of the treated mice
Source text: The sperm of the mice in each group is taken for fertilization in vitro.

[10] = test system: p-AKT; test: Western blot of p-AKT expression in testis; conditions: Western blot gray values, metformin 200 mg/kg/d, after 30 days
Experimental: as §2

[11] = test system: sperm of obese type 2 diabetic mice; test: Analysis of semen parameters; conditions: metformin 200 mg/kg/d, after 30 days
Experimental: One side of epididymis in each group is put into a 12-well plate, diluted with 500 μL of normal saline, fully cut into pieces by a tissue scissor, incubated in a 37° C. incubator, and filtered by a 200-mesh sieve, and 20 μL of filtrate is collected on a cell counting plate, observed under a microscope, and the number of sperm is counted. Sperm viability, sperm motility and malformation rate are counted respectively by Yin Hong aniline black and Diff-Quick staining. Data is analyzed using GraphPad Prism 8.4 statistical software. Counting data of experimental results is expressed as rate/percentage (%), and measurement data is expressed as x±s. The one-way ANOVA is used to compare the groups, and the difference is statistically significant with P<0.05.

[12] = test system: mouse testis tissue; test: HE staining of testis tissue (testicular morphology); conditions: HE staining 200x; metformin 200 mg/kg/d, after 30 days
[13] = test system: mice with testicular dysfunction caused by obese type 2 diabetes mellitus; test: Insulin tolerance test (ITT); conditions: metformin 200 mg/kg/d, after 30 days; blood glucose 0-120 min after insulin
Experimental: (§5) 2.3 After 30 days of administration of each group in step 2.2, the following tests are performed in each group.
as §4

[14] = test system: mice with testicular dysfunction caused by obese type 2 diabetes mellitus; test: Oral glucose tolerance test (OGTT); conditions: metformin 200 mg/kg/d, after 30 days; blood glucose 0-120 min after gavage
Experimental: as §5, §3

[15] = test system: Bcl-2; test: Western blot of Bcl-2 expression in testis; conditions: Western blot gray values, metformin 200 mg/kg/d, after 30 days
Experimental: as §2

[16] = test system: testosterone (T); test: Serum testosterone by ELISA; conditions: metformin 200 mg/kg/d, after 30 days
Experimental: as §1

[17] = after treatment, dose group not stated
[18] = females caged with males 2:1 for one week, males given metformin 200 mg/kg/d
[19] = of 10 egg cells, sperm of mice given metformin 200 mg/kg/d

**Q.** Which T-SOD [1] does the source give for CN(C)C(=N)N=C(N)N [Met, metformin hydrochloride] here?
**A.** Its T-SOD is 168.4 ± 34.7^Δ U/mgprot.

**Q.** And the PI3K/β-actin [2]?
**A.** The PI3K/β-actin was 0.945 ± 0.056^Δ.

**Q.** What about the “AUC of weight before treatment” value ([3]; before treatment (16 weeks high-fat feed), metformin group) of the same compound?
**A.** The value was 613.8 ± 5.3^Δ.

**Q.** And the “AUC of weight after treatment” value ([3]; metformin 200 mg/kg/d, 30 days)?
**A.** Its value is 1243.0 ± 12.0^Δ.

**Q.** And the “Weight on the 30th day after treatment” value ([3]; metformin 200 mg/kg/d, day 30)?
**A.** The value was 37.9 ± 2.2^Δ g.

**Q.** And the GSH-Px [4]?
**A.** The GSH-Px was 2206.0 ± 535.6^Δ umol/L.

**Q.** What about the “fertility of the mice” value [5, 17] of the same compound?
**A.** The value was “improved, reaching the normal fertility level”.

**Q.** And the “Average number of offspring” value [5, 18]?
**A.** Its value is 5.3.

**Q.** What about the Pregnancy rate [5, 18] of the same compound?
**A.** The Pregnancy rate was 50%.

**Q.** What about the Vaginal suppository [5, 18] of the same compound?
**A.** Its Vaginal suppository is 50%.

**Q.** What about the “FPG on the 30th day after treatment” value [6] of the same compound?
**A.** The value was 5.5 ± 0.9^Δ.

**Q.** What about the MDA [7] of the same compound?
**A.** The MDA was 5.6 ± 1.5^Δ umol/L.

**Q.** And the Epididymis coefficient [8]?
**A.** The Epididymis coefficient was 0.33 ± 0.03^Δ %.

**Q.** And the “Seminal vesicle gland coefficient” value [8]?
**A.** The value was 1.21 ± 0.06^Δ %.

**Q.** And the Testis coefficient [8]?
**A.** The Testis coefficient was 0.65 ± 0.04^Δ %.

**Q.** What about the “binding rate of sperm and egg cells” value [9, 17] of the same compound?
**A.** Its value is “increases”.

**Q.** And the “division of fertilized egg cells” value [9, 17]?
**A.** Its value is “divide normally”.

**Q.** What about the “Number of division of fertilized eggs within 24 hours” value [9, 19] of the same compound?
**A.** Its value is 7.

**Q.** And the “Sperm and egg binding number” value [9, 19]?
**A.** The value was 7.

**Q.** What about the p-AKT/AKT [10] of the same compound?
**A.** The p-AKT/AKT was 0.635 ± 0.141.

**Q.** What about the Sperm count [11] of the same compound?
**A.** The Sperm count was 85.02 ± 10.55^Δ 10^6/L.

**Q.** And the Sperm malformation rate [11]?
**A.** Its Sperm malformation rate is 68.18 ± 4.12^Δ %.

**Q.** And the Sperm motility [11]?
**A.** Its Sperm motility is 34.55 ± 0.37^Δ %.

**Q.** And the Sperm viability [11]?
**A.** The Sperm viability was 43.84 ± 3.59^Δ %.

**Q.** What about the “testicular morphology compared to the model group” value [12] of the same compound?
**A.** Its value is “considerably improved”.

**Q.** What about the ITT-AUC [13] of the same compound?
**A.** The ITT-AUC was 760.7 ± 49.5^Δ.

**Q.** And the OGTT-AUC [14]?
**A.** Its OGTT-AUC is 1660 ± 70.3^Δ.

**Q.** And the Bcl-2/β-actin [15]?
**A.** The Bcl-2/β-actin was 1.020 ± 0.076^Δ.

**Q.** And the “Testosterone T” value [16]?
**A.** The value was 5.06 ± 1.42 ng/mL.

Reference: patent US12194070B2, “Traditional chinese medicine compound for improving testicular dysfunction, preparation method and application thereof” (Ningxia Medical University, priority 2023, dated 2025)
